The values that follow are results of earlier work, collected in patent US20260232589A1, “NANOPREPARATIONS LOADED WITH TRABECTEDIN AND PACLITAXEL” (SHANGHAI JIAO TONG UNIVERSITY, priority 2023, published 2026).

The data set concerns Ly6Chi monocytes. Particulars: literature reports, after trabectedin administration.

For `COc1cc2c(cc1O)CCN[C@]21CS[C@@H]2c3c(OC(C)=O)c(C)c4c(c3[C@H](COC1=O)N1[C@@H]2[C@H]2c3c(cc(C)c(OC)c3O)C[C@@H]([C@@H]1O)N2C)OCO4` [trabectedin], the “number of Ly6Chi monocytes in the peripheral blood of mice” value is reported as “decreases”.
